Reference: ChEMBL document CHEMBL1159224, “A new cytotoxic dihydroxy sterol from the soft coral Alcyonium patagonicum” (J Nat Prod, 1995)
Converted amounts (≈) assume the structure as drawn.

Test system: P388
Assay: Cytotoxicity against mouse P388 cells
Format: functional, cell-based

C=C(CC[C@@H](C)[C@H]1CC[C@H]2[C@@H]3C[C@@H](O)C4=C[C@@H](O)CC[C@]4(C)[C@H]3CC[C@]12C)C(C)C
IC50: 1 µg/mL (≈ 2.41 µM)
